Measurements reported in patent publication US7598244B2, “[1,2,4]triazolo[1,5,a]pyrimidin-2-ylurea derivative and use thereof” (Nippon Kayaku Kabushiki Kaisha, priority 2003, dated 2009).
Read-outs that look alike come from different tables or passages of the source.

Assays:
BALB/c mice = experiment: Effect on mouse delayed-type hypersensitivity reaction (DTH reaction), swelling of the sole; format: in vivo; conditions: Oral
Experimental: Effect on Mouse Delayed-Type Hypersensitivity Reaction (DTH Reaction)
1.0×10^5 sheep erythrocytes (Nippon Seibutsu Zairyo Center, Co., Ltd.) were administered to each of BALB/c mice (Charles River Japan, Inc.; female; 8-week-old) by intravenous injection for sensitization. From the day of administration of the sheep erythrocytes, a test compound was administered to the mouse. As a control, a 0.5% carboxymethyl cellulose (CMC)-Na solution and a normal saline solution used as solvents were administered to the same type of mouse via oral administration or intraperitoneal administration. Five days after the antigen sensitization, 1.0×10^8 sheep erythrocytes were subcutaneously injected into the sole of the mouse. 24 hours later, the thickness of the sole was measured. The value obtained by subtracting the mean value of the thicknesses of the soles of mice, to which a normal saline solution had been administered instead of the sheep erythrocytes, from the above measurement value, was defined as swelling of the sole generated as a result of the DTH reaction. The inhibition rate of the swelling of the sole caused by the DTH reaction was calculated using the following formula (5). The amount of the test compound necessary for inhibition of 50% (ED50 value) was obtained as the activity of the test compound to inhibit the DTH reaction. It is to be noted that cyclosporin A was used as a positive control.
[formula] • Eexp: Swelling of sole of mouse to which test compound was administered • Cexp: Swelling of sole of mouse to which solvent was administered

[1] = tested on: (C57BL/6XB6. C—H2^bml) F1 mice; experiment: Life-lengthening effect on graft versus host disease (GVHD); format: in vivo, mouse; conditions: oral, once a day
Experimental: Life-Lengthening Effect on Graft Versus Host Disease (GVHD)
The present test was carried out by modification of the method of Jonathan et al. (Jonathan et al., Blood, p. 93 (1999)). First, 6.0 Gy X-ray was applied to (C57BL/6XB6. C—H2^bml) F1 mice (produced by mating 6XB6.C—H2^bml mice (Jackson Laboratory) with C57BL/6 mice (Charles River Japan); female; 8 to 12-week-old). Thereafter, CD8 positive T cells (1.25×10^6 cells) prepared from the splenic cells of C57BL/6 mice (Charles River Japan; female; 8-week-old) were intravenously injected into the above (C57BL/6XB6. C—H2^bml) F1 mice. From the day before the injection, the test compound having each diluted concentration or 0.5% carboxymethyl cellulose used as a solvent was orally administered to the mice once a day for 7 to 30 consecutive days. The day on which the transplantation was conducted was defined as day 0. Based on the median of the survival days of each group, the prolongation rate of such survival dates was calculated using the following formula (7). Thus, the effect of the test compound on GVHD was analyzed.
[formula] • Eexp: Median of survival days of test compound administration group • Cexp: Median of survival days of solvent administration group

mouse splenic cells = experiment: Inhibitory action on blastogenesis of mouse splenic cells ([3H]-thymidine incorporation); format: cell-based; conditions: Mus musculus, Lymphocyte, 72 hours
Experimental: Inhibitory Action on Blastogenesis of Mouse Splenic Cells
The spleen was excised from each of BALB/c mice (Charles River Japan; female; 10-week-old), and it was allowed to pass through a mesh to obtain a single cell suspension. This single cell suspension was prepared to be 1.0×10^6 cells/ml. Thereafter, 200 μl of the suspension was fractionated into each well of a 96-well plate. Thereafter, as blastogenic stimulation, 5 μg/ml concanavalin A (Pharmacia) or 25 μg/ml Escherichia coli-derived lipopolysaccharide (DIFCO) was added to the well, and then, a solution containing a test compound with each different concentration was further added thereto at an amount of 20 μl/well. The obtained mixture was cultured at 37° C. for 72 hours in an incubator containing 5% carbon dioxide. Thereafter, a 1 μCi/10 μl/well [^3H]-thymidine solution was added thereto 64 hours after initiation of the culture. After completion of the culture (72 hours later), the cells were captured on a filter using a cell harvester, and they were then dried. Thereafter, scintillator was added thereto, and the radioactivity of [^3H]-thymidine incorporated into the cells was then measured using a liquid scintillation counter. The inhibition rate of the DNA synthesis was calculated using the aforementioned formula (3). Thereafter, the concentration of a test compound necessary for inhibition of 50% (IC50 value) was obtained.

CD80 = experiment: Expression of antigen-presenting and costimulatory molecules of human peripheral blood-derived dendritic cells: CD80; format: cell-based
Experimental: (§1) Action on Expression of Antigen-Presenting Molecules and Costimulatory Molecules of Human Peripheral Blood-Derived Dendritic Cells
(§2) The dendritic cells obtained by the same method as in Test Example 2 were suspended in RPMI 1640 comprising 10% FCS containing 500 U/ml GM-CSF, 50 ng/ml IL-4, and 100 U/ml human recombinant tumor necrosis factor (2.5×10^6 cells/ml). Thereafter, the suspension was inoculated into a 6-well plate at an amount of 2.0 ml/well, and the test compound was then added thereto. The mixture was cultured at 37° C. for 3 days in an incubator containing 5% carbon dioxide. Thereafter, the suspended cells were recovered. The cells were then stained with fluoroisothiocyanate-labeled mouse monoclonal antibodies reacting with MHC class I (Bechman Coulter), CD1a (Immunotech), CD40 (Pharmingen), CD80 (Pharmingen), and CD83 (Immunotech). Thereafter, mean fluorescence intensity and the ratio of positive cells were measured by flow cytometry. The expression level was calculated by the formula “the mean fluorescence intensity x the ratio of positive cells,” and the inhibition rate of the surface antigen expression level of dendritic cells was then obtained by the following formula (8).
(§3) [formula] • Eexp: Expression level of surface antigens of dendritic cells cultured in the presence of test compound • Cexp: Expression level of surface antigens of dendritic cells cultured in the absence of test compound

CD83 = experiment: Expression of antigen-presenting and costimulatory molecules of human peripheral blood-derived dendritic cells: CD83; format: cell-based
Experimental: as §1, §2, §3

MHC class II = experiment: Expression of antigen-presenting and costimulatory molecules of human peripheral blood-derived dendritic cells: MHC class II; format: cell-based

CC(C)NC(=O)Nc1nc2nccc(-c3cccs3)n2n1 [Example 029, 1-isopropyl-3-(7-thiophen-2-yl[1,2,4]triazolo[1,5-a]pyrimidin-2-yl)urea]
Inhibition rate (%) of swelling of the sole (BALB/c mice; administration period 7 days, 50 mg/kg/single administration): 37.0%
Inhibition rate (%) of swelling of the sole (BALB/c mice; administration period 7 days, 100 mg/kg/single administration): 49.5%
Inhibition rate (%) of swelling of the sole (BALB/c mice; administration period 8 days, 50 × 2 (50 mg/kg, twice a day)): 80.0%
Lengthening rate of survival days (%) ([1]; 25 mg/kg/single administration): 75%
Lengthening rate of survival days (%) ([1]; 100 mg/kg/single administration): 200%
IC50 (mouse splenic cells; 5 μg/ml concanavalin A, read-out: Lymphocyte blastogenesis IC50 (μM), ConA stimulation): 0.71 µM
IC50 (mouse splenic cells; 25 μg/ml Escherichia coli-derived lipopolysaccharide, read-out: Lymphocyte blastogenesis IC50 (μM), LPS stimulation): 0.3 µM
Expression inhibition rate by test compound (%), CD80 (CD80; Analyte 1, 3 days): 83.8%
Expression inhibition rate by test compound (%), CD80 (CD80; Analyte 2, 3 days): 12.1%
Expression inhibition rate by test compound (%), CD80 (CD80; Analyte 3, 3 days): 26.8%
Expression inhibition rate by test compound (%), CD83 (CD83; Analyte 1, 3 days): 62.6%
Expression inhibition rate by test compound (%), CD83 (CD83; Analyte 2, 3 days): 88.6%
Expression inhibition rate by test compound (%), CD83 (CD83; Analyte 3, 3 days): 42.7%
Expression inhibition rate by test compound (%), MHC class II (MHC class II; Analyte 1, 3 days): 65.6%
Expression inhibition rate by test compound (%), MHC class II (MHC class II; Analyte 2, 3 days): 93.3%
Expression inhibition rate by test compound (%), MHC class II (MHC class II; Analyte 3, 3 days): 50.2%
